Legend:
[1] = test system: Helicobacter pyroli; assay: AHP: Antibacterial Activity Test Against Helicobacter pyroli (agar dilution); format: cell-based, HP NCTC 11637; settings: Helicobacter, NCTC11637, 168 h; HP NCTC 11637, agar dilution, 7 days; read-out: AHP minimum inhibitory concentration (MIC)
Method: AHP: Antibacterial Activity Test Against Helicobacter pyroli i) Meaning The minimum inhibitory concentration (MIC) against Helicobacter pyroli (microaerophilic gram-negative bacterium which is supposed to deeply involve in pathogenesis, relapse, and recrudescence of ulcer, referred to as "HP" in the following) is measured so as to find out compounds which have antimicrobial activity against Helicobacter pyroli. ii) Method MICs were determined by the agar dilution method. The stock culture (-80° C.) of HP NCTC 11637 was thawed and cultured on tripticase soy agar supplemented with 5% sheep blood at 37° C. in an atmosphere of 5% O2, 10% CO2, and 85% N2. Grown colonies were transferred to the same plate and precultured for 3 days under the same condition. […] 10 μl of the bacterial suspension for inoculation (about 10^3 cfu) was inoculated on this plate and cultured for 7 days under the same condition as that of preculture. […] As the result of the comparison of these plates, when the number of the colony on the plate containing the sample compound was less than 90% with respect to that on the control plate, it was represented by "+". Contrary to this, when there was 90% or more, it was represented by "-".

[2] = test system: stress ulcer; assay: WIS: Restraint and Water Immersion Stress-Induced Ulcer Inhibition Test; format: in vivo, rat (male Crj:SD or Slc:SD); settings: 100 mg/kg oral, rats, 7 hours restraint and water immersion (21° C.)
Method: WIS: Restraint and Water Immersion Stress-Induced Ulcer Inhibition Test
The degree of inhibition of the stress ulcer formation is tested.
Male Crj:SD or Slc:SD rats (6 to 7-week-old) were fasted overnight, but allowed free access to water. Each group has 5 to 8 of these rats. […] To a control group, the vehicle was administered. 10 minutes later, the rats were placed in a stress cage and immersed to the level of xipfoid process in a water bath (21° C.) for 7 hours. At the end of the stress, the rats were sacrificed by inhalation of ether or carbon dioxide. Then, the stomach of each was removed, inflated by injecting 10 ml of 5% formalin neutral buffer solution, and immersed in 1% formalin neutral buffer solution for 30 minutes or more to be fixed. The stomach was incised along the greater curvature and then the length of each erosion in the glandular portion was determined under dissecting microscope. The sum of the length of erosions per stomach was defined as ulcer index (UI).
The effect obtained when 100 mg/kg of the sample compound had been administered was expressed as ulcer formation inhibitory rate (%) as follows:
ulcer formation inhibitory rate (%)=(1-(UI in sample group/UI in control group))×100

[3] = MTT: Cell Damaging and Protecting Effect Test; format: cell-based, rabbit (male Japanese White); settings: rabbit, gastric corpus mucosa cells, final concentration 10^-4 M, smaller value is better, read-out: MTT cell damaging rate
Excerpt: MTT: Cell Damaging and Protecting Effect Test
It is confirmed that there is no toxicity in cell level. Those having a toxicity in cell level are inappropriate as an anti-ulcer drug.
A male Japanese White rabbit (2.5 to 3 kg) was anesthetized to death by Nembutal™ and, immediately thereafter, its stomach was removed. The greater curvature of the stomach was incised so as to remove the stomach contents therefrom. After the mucosal surface was washed with HBSS (Hanks' Balanced Salt Solution), the stomach in ice-cooled HBSS was transferred to a laboratory. Then, after the pyloric antrum was removed, the gastric corpus mucosa was separated by a spatula and then minced into 2 to 3 mm^3 pieces in BME (Basal Medium Eagle). Thereafter, these pieces were shaken at 120 to 130 cycles/minute for 15 minutes at 37° C. in BME 60 ml containing 280 U/ml of dispase and 30 to 50 U/ml of collagenase. Here, the concentration of collagenase was appropriately changed for each lot in view of the state of cells. The pieces were washed twice with EBSS (Earle's Balanced Salt Solution) containing 1 mM of EDTA and then shaken in MEM (Minimum Essential Medium) containing 1 mM of EDTA at 37° C. for 5 minutes. Subsequently, they were shaken in the dispase and collagenase having the same concentrations as those mentioned above for 15 minutes so as to remove the supernatant and then further shaken at 37° C. for 50 to 60 minutes at 120 to 130 cycles/minute. Then, after being washed twice with HBSS, Ham F12 containing 2% of Ultrocer G™ was used to attain the concentration of 1×10^6 cells/ml. Thus formed suspension was dispensed in each well of a 96-well plate by 200 μl. The plate was incubated in the atmosphere composed of 5% CO2 and 95% air at 37° C. for three days so as to attain a confluent state and then subjected to MTT assay.
The sample compound was dissolved in DMSO so as to attain a concentration of 10^-2 M and then diluted with HBSS containing 2% of Ultrocer G™ so as to attain a final concentration of 10^-4 M. To each group, which 8 wells were used for, 10 μl of MTT reagent was added immediately after 100 μl of the medium in each well was exchanged for same volume of the resulting solution of the sample compound. After being incubated in an atmosphere composed of 5% CO2 and 95% air at 37° C. for 4 hours, thus formed solution was centrifuged and then its supernatant was discarded. Subsequently, 100 μl of 100% ethanol was added to the residue so as to dissolve MTT formazan. Then, the absorbance (OD: 570 to 630) was measured by a microplate reader. This method utilizes a phenomenon in which MTT is changed to MTT formazan only by mitochondria of living cells so as to change color.
The cell damaging or cell protecting effect of the sample compound at the final concentration of 10^-4 M was expressed as cell damaging rate (%) as follows:
cell damaging rate (%)=(1-(absorbance in sample group/absorbance in control group))×100
Accordingly, the smaller rate value is better in the cell damage.

MIC [1]: < 3.13 mg/L
SMILES: CC(C)=CCC/C(C)=C/COc1ccc(C(=O)N2CCN(CCNC(=O)c3ccc4c(c3)OCO4)CC2)cc1 [Example 1, 1-(4-geranyloxy)benzoyl-4-[2-(piperonyloylamino)ethyl]piperazine]
WIS ulcer formation inhibitory rate [2]: 81%
cytotoxicity at 4 h, 100 µM [3]: 21%
